Test results taken from patent publication US11208412B2 (DAEGU-GYEONGBUK MEDICAL INNOVATION FOUNDATION, priority 2017, dated 2021).

Experiments:
[1] = target: T1, kinases of the scanMAX Kinase assay panel (Homo sapiens, UniProt P36888, D835Y); assay: Kinase selectivity, DiscoverX scanMAX Kinase assay panel (% control); format: binding; details: FLT3(D835Y); 1 uM
T1 construct: purchased DiscoverX Co. (contract measurement) scanMAX Kinase assay panel
T1 sequence (P36888 27-993 D835Y): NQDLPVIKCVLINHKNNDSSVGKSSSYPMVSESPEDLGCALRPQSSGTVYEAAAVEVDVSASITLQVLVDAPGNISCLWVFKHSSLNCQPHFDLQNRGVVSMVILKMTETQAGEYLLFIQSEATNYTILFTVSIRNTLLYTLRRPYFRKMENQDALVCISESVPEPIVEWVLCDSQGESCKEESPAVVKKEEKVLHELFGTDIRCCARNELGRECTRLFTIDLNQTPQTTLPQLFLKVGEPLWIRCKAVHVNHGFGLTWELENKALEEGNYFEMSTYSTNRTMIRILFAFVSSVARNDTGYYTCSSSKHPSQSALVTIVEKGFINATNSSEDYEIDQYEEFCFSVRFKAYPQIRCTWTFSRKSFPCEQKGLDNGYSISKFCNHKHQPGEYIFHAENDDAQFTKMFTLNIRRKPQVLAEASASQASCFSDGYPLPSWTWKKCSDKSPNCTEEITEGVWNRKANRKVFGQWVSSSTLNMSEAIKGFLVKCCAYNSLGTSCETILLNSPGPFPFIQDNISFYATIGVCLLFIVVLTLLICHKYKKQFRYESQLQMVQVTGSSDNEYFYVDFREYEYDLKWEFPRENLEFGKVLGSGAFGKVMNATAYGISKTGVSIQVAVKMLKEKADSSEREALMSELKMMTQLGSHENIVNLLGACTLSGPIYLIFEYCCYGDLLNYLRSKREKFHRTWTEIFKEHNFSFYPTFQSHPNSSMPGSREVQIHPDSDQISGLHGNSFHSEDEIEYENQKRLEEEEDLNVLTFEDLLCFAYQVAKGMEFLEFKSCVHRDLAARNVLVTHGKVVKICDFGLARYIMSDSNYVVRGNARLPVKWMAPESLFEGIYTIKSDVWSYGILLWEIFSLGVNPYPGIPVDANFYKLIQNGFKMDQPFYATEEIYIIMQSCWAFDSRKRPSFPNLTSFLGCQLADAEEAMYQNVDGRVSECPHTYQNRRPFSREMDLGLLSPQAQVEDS
Method in brief: (§1)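 Each enzyme is treated with drug at 1 uM in DMSO, then signal is scaled between a positive control (0%) and DMSO (100%) to give % control. Kinases with % control under 35% are scored as inhibited.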

[2] = target: T2, kinases of the scanMAX Kinase assay panel (Homo sapiens, UniProt P29322); assay: as above; format: binding; details: EPHA8; 1 uM
T2 construct: purchased DiscoverX Co. (contract measurement) scanMAX Kinase assay panel
T2 sequence (P29322 28-1005): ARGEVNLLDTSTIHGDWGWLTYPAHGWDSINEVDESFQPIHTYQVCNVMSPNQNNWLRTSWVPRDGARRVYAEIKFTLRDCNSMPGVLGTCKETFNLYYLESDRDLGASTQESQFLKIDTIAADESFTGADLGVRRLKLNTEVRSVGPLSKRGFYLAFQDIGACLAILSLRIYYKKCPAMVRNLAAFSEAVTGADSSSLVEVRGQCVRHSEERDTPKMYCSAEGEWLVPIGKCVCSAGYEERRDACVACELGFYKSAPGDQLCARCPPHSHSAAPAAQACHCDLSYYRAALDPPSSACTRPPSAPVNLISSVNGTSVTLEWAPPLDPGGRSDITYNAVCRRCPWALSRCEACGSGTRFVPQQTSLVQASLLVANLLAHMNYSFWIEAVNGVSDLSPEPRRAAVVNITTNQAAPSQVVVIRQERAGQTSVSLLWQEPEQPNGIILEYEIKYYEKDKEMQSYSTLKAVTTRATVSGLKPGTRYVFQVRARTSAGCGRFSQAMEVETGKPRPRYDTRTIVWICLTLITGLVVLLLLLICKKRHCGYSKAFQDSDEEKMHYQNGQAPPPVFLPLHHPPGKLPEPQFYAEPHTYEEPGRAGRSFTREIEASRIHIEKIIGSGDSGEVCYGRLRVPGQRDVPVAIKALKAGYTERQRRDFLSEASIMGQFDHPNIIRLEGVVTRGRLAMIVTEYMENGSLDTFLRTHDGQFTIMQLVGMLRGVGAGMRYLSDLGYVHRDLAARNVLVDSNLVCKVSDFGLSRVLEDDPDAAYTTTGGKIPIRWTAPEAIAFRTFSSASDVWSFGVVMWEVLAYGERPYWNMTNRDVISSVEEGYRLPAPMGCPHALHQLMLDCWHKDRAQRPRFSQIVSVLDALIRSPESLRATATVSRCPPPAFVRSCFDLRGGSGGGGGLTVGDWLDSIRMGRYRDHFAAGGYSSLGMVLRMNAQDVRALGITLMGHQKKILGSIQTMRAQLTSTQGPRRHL
Method in brief: as §1

SMILES	remaining binding at 1 µM [1] [%]	remaining binding at 1 µM [2] [%]
CCNc1nc(Nc2ccc(C(=O)N3CCC(N4CCOCC4)CC3)cc2OC)nc2[nH]cc(C(F)(F)F)c12 [Example 104, (4-((4-(ethylamino)-5-(trifluoromethyl)-7H-pyrrolo[2,3-d]pyrimidine-2-yl)amino)-3-methoxyphenyl)(4-morpholinopiperidine-1-yl)methanone]	14	93
CNc1nc(Nc2ccc(C(=O)N3CCOCC3)cc2OC)nc2[nH]cc(C#N)c12 [Example 1, 2-((2-methoxy-4-(morpholine-4-carbonyl)phenyl)amino)-4-(methylamino)-7H-pyrrolo[2,3-d]pyrimidine-5-carbonitrile]	82	97
CC1(Nc2nc(Nc3cnn([C@H]4CCN(C5COC5)C[C@@H]4F)c3Cl)nc3[nH]cc(C#N)c23)CC1 [Example 52, 2-((5-chloro-1-((3S,4S)-3-fluoro-1-(oxetane-3-yl)piperidine-4-yl)-1H-pyrazole-4-yl)amino)((1-methylcyclopropyl)amino)-7H-pyrrolo[2,3-d]pyrimidine-5-carbonitrile]	0	86
